Literature values in paper PMC7220402 (Medicine, 2020).

For `COc1c(C)c2c(c(O)c1C/C=C(\C)CCC(=O)O)C(=O)OC2` [MPA, mycophenolic acid], the “Variation in dose-normalized MPA exposure” value is given as 10 fold.
